In US8193378B2, “2H-chromene compound and derivative thereof” (Astellas Pharma Inc., priority 2008, dated 2012):
Like-named read-outs stand apart in the source and are kept apart here.

Legend:
[1] = system: peripheral blood lymphocytes; assay: Reduction of number of peripheral blood lymphocytes in rat (Test Example 2); format: in vivo; details: Lymphocyte, male Lewis rats, oral
Protocol: Evaluation of Reduction of Number of Peripheral Blood Lymphocytes in Rat
The action on the peripheral blood lymphocytes were evaluated using rats. 6- to 10-week-old male Lewis rats (Japan Charles River Laboratories Japan, Inc.) were randomly divided into groups (n=3), and the compound of the present invention was suspended in 0.5% methyl cellulose-containing distilled water, and orally administered with a sonde. At 4 hours or 24 hours after administration, 0.2 ml of blood was collected from the ocular fundus under ether anesthesia. To the blood sample were immediately added EDTA.4K and heparin to prevent clotting, and the number of the lymphocytes in blood was measured with an automatic hematocyte analyzer (Sysmex Corp.; XT-2000i). For the reduction of the number of the lymphocytes in peripheral blood by the compound of the present invention, the percentage with the number of the lymphocytes in groups administered with 0.5% methyl cellulose-containing distilled water being set at 100%, as performed at the same time, were used, and the dose to cause 50% reduction of the number of the lymphocytes in the peripheral blood by administration of the compound of the present invention was defined as an ED50 value (mg/kg).

human S1P1 [2] = biological target: T1, human S1P1 (Homo sapiens, UniProt P21453); assay: Ca2+ influx assay using human S1P1 expressing cell (Test Example 1, Method 2); format: cell-based; details: method 2, Ca2+ influx, human S1P1 expressing CHO cell (values with *); read-out: A: EC50, in vitro S1P1 agonist action (value with *)
T1 construct: expressed in transfected cells; membrane fraction used
T1 sequence (P21453 whole entry): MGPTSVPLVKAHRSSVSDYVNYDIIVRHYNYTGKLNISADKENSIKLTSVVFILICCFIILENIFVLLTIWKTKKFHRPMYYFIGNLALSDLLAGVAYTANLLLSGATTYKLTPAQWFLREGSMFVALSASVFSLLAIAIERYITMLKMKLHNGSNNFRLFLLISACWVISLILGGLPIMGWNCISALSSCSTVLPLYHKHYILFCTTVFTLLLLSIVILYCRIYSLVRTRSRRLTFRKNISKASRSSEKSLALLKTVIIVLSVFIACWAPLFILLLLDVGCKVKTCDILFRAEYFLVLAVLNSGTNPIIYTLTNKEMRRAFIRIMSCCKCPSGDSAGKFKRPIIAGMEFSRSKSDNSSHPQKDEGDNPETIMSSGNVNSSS
Protocol: (§1) Evaluation of In Vitro S1P1 Receptor Agonist Activity in Biological Body
(Method 2) Method for Evaluation of Receptor Agonist Action by Ca^2+ Influx Assay Using Human S1P1 Expressing Cell
The in vitro S1P1 agonist action of the compound of the present invention was evaluated by the increase in the Ca^2+ concentration in a human S1P1 expressing cell. A cDNA encoding a human S1P1 was cloned from a human colorectal cDNA library and introduced to an expression vector pcDNA3.1 to construct a S1P1-pcDNA3.1. Then, by Lipofectamine 2000 (GIBCO), the S1P1-pcDNA3.1 was transfected into a CHO cell, and cultured in a Ham's F-12 culture medium containing 10% fetal bovine serum, 100 U/mL penicillin, 100 μg/mL streptomycin, and 1 mg/mL G418 disulfate, to obtain a stable, G418-resistant strain. The cultured human S1P1 expressing cells were isolated in a 1 mM EDTA.2Na-containing PBS and suspended in a Ham's F-12 culture medium containing 10% fetal bovine serum, 100 U/mL penicillin, and 100 μg/mL streptomycin. This cell suspension was dispensed to a 96-well plate at 50000 cells/well, and cultured at a CO2 incubator (5% CO2, 37° C.) overnight. The culture medium was replaced with a calcium-sensitive fluorescent reagent (FLIPR (registered trademark) calcium 3 assay kit, molecular device)-containing loading buffer (Hank's balance salt solution, 20 mM HEPES, 2.5 mM probenecid) and left stand at a CO2 incubator (5% CO2, 37° C.) for 1 hour. The plate was set at a Functional Drug Screening System FDSS6000 (Hamamatsu Photonics K. K.), and persistently measured 124 times every 1.02 second at an excitation wavelength of 480 nm. The test compound (final concentration 10^−12 to 10^−5 M) was added at the same time as the 12th measurement, and the change in the Ca^2+ concentration in cells was evaluated by the change in the fluorescent strength. For evaluation of the human S1P1 agonist action of the compound of the present invention and the comparative compound, the percentages with the rate of a maximum reaction to make the increase in the Ca^2+ concentration in cells saturated after the addition of the compound being set at 100% and the rate of the increase in the Ca^2+ concentration in cells by the addition of a vehicle alone being set at 0% were used, a non-linear regression curve was plotted, and a concentration to cause an agonist action operating 50% of the maximum reaction was defined as an EC50 value (nM).

human S1P1 [3] = biological target: T1, human S1P1; assay: GTP[γ-35S] binding assay using membrane of human S1P1 expressing cell (Test Example 1, Method 1); format: biochemical; details: method 1, GTP[γ-35S] binding, membrane of human S1P1 expressing CHO cell (values without *); read-out: A: EC50, in vitro S1P1 agonist action
Protocol: as §1
(Method 1) Method for Evaluation on Receptor Agonist Action by GTP[γ-^35S] Binding Assay Using Membrane of Human S1P1 Expressing Cell
The in vitro S1P1 agonist action of the compound of the present invention was evaluated by the increase in the functional binding activity of GTP[γ-^35S] to G-protein using the membrane of a human S1P1 expressing cell. A cDNA encoding a human S1P1 was cloned from a human colorectal cDNA library and introduced to an expression vector pcDNA3.1 to construct a S1P1-pcDNA3.1. Then, by Lipofectamine 2000 (GIBCO), the S1P1-pcDNA3.1 was transfected into a CHO cell, and cultured in a Ham's F-12 culture medium containing 10% fetal bovine serum, 100 U/mL penicillin, 100 μg/mL streptomycin, and 1 mg/mL G418 disulfate, to obtain a stable, G418-resistant strain. The cultured human S1P1 expressing cells were isolated in a 1 mM EDTA.2Na-containing PBS, and disrupted under ice-cooling by a homogenizer made of glass in a 1 mM Tris HCl (pH 7.4) buffer solution containing 0.1 mM EDTA and a protein inhibitor. It was centrifuged at […], and a supernatant was further centrifuged at 4° C. for 60 min at 100,000×g, and suspended in a 10 mM Tris HCl (pH 7.4) buffer solution containing 1 mM EDTA to purify the membrane. The obtained membrane (0.13 mg/mL) and […] GTP[γ-^35S] […] The filter plate was dried at 50° C. for 60 min, and Microscinti-o (Packard) was added thereto for measurement by a liquids scintillation counter for a microplate (Packard, TOP count). For evaluation of the human S1P1 agonist action of the compound of the present invention and the comparative compound, the percentages with the rate of a maximum reaction to make the GTP[γ-^35S] bonds saturated in the presence of the compound being set at 100%, and the rate of the reaction of the GTP[γ-^35S] bonds in the absence of the compound being set at 0% were used, a non-linear regression curve was plotted, and a concentration to cause an agonist action operating 50% of the maximum reaction was defined as an EC50 value (nM).

[4] = 24 hours after administration, read-out: B: ED50 24 h, reduction of number of lymphocytes in peripheral blood
[5] = 4 hours after administration, read-out: B: ED50 4 h, reduction of number of lymphocytes in peripheral blood

Row | Compound | ED50 [1, 4] | EC50 (human S1P1 [2]) | ED50 [1, 5] | EC50 (human S1P1 [3])
1 | Cl.O=C(O)[C@@H]1CCCN(CC2=Cc3c(F)cc(OCc4ccc(OC(CF)CF)c(C(F)(F)F)c4)cc3OC2)C1 [Ex 212] | 0.21 mg/kg | 1.1 nM | – | –
2 | CC1CN(CC2=Cc3c(F)cc(OCc4cc(-c5ccccc5)c(C(F)(F)F)s4)cc3OC2)CC1C(=O)O (stereo not shown) [Ex 69] | – | – | 0.087 mg/kg | 6.3 nM
3 | Cl.O=C(O)C1=CCN(CC2=Cc3ccc(OCc4ccc(OC(CF)CF)c(Cl)c4)cc3OC2)CC1 [Ex 181] | 0.29 mg/kg | 0.68 nM | – | –
4 | O=C(O)[C@H]1CCN(CC2=Cc3c(F)cc(OCc4ccc(-n5cccc5)c(C(F)(F)F)c4)cc3OC2)C1 [Ex 109] | – | – | 0.26 mg/kg | 5.4 nM
5 | O=C(O)C1CN(CC2=C(Cl)c3ccc(OCc4ccc(C(F)(F)F)cc4C(F)(F)F)cc3OC2)C1 [Ex 25] | – | – | 0.013 mg/kg | 1.7 nM
6 | CS(=O)(=O)NC(=O)[C@@H]1CCCN(CC2=Cc3c(F)cc(OCc4ccc(OC(CF)CF)c(C(F)(F)F)c4)cc3OC2)C1.Cl [Ex 152] | 0.28 mg/kg | 6.3 nM | – | –
7 | CC1(C(=O)O)CN(CC2=Cc3c(F)cc(OCc4cc(-c5ccccc5)c(C(F)(F)F)s4)cc3OC2)C1 [Ex 81] | – | – | 0.25 mg/kg | 4.6 nM
8 | CS(=O)(=O)NC(=O)C1CCN(CC2=Cc3c(F)cc(OCc4ccc(C(F)(F)F)cc4C(F)(F)F)cc3OC2)C1.Cl (stereo not shown) [Ex 1, 1-[(7-{[2,4-bis(trifluoromethyl)benzyl]oxy}-5-fluoro-2H-chromen-3-yl)methyl]-N-(methylsulfonyl)pyrrolidine-3-carboxamide hydrochloride] | – | – | 0.016 mg/kg | 1.7 nM
9 | Cl.O=C(O)C1=CCCN(CC2=Cc3ccc(OCc4ccc(C5CCCC5)c(C(F)(F)F)c4)cc3OC2)C1 [Ex 216] | 0.25 mg/kg | 7.8 nM | – | –
10 | CC1(C(=O)O)CCN(CC2=Cc3c(F)cc(OCc4cc(-c5ccccc5)c(C(F)(F)F)s4)cc3OC2)C1 (stereo not shown) [Ex 66] | – | – | 0.21 mg/kg | 10 nM
11 | Cl.O=C(O)C1CN(CC2=Cc3ccc(C#CCCc4ccccc4)cc3OC2)C1 [Ex 132] | – | – | 0.16 mg/kg | 22 nM
12 | C[C@H](Oc1ccc(COc2cc(F)c3c(c2)OCC(CN2CCC=C(C(=O)O)C2)=C3)cc1C(F)(F)F)C(F)(F)F.Cl [Ex 141] | – | – | 0.099 mg/kg | 5.9 nM
13 | CC(C)Oc1ccc(COc2ccc3c(c2)OCC(CN2CCC=C(C(=O)O)C2)=C3)cc1Cl.Cl [Ex 151] | 0.35 mg/kg | 1.1 nM | – | –
14 | C[C@H](Oc1ncc(COc2ccc3c(c2)OCC(CN2CCC=C(C(=O)O)C2)=C3)cc1Cl)C(F)(F)F.Cl [Ex 183] | 0.21 mg/kg | 5.5 nM | – | –
15 | O=C(O)C1=CCCN(CC2=Cc3c(F)cc(OCc4ccc(C(F)(F)F)cc4C(F)(F)F)cc3OC2)C1 [Ex 85] | – | – | 0.19 mg/kg | 11 nM
16 | Cl.O=C(O)C1CCN(CC2=Cc3ccc(OCc4ccc(C(F)(F)F)cc4C(F)(F)F)cc3OC2)C1 (stereo not shown) [Ex 44] | – | – | 0.37 mg/kg | 3.7 nM
17 | CCc1sc(COc2cc(F)c3c(c2)OCC(CN2CCC(C(=O)O)C2)=C3)cc1-c1ccccc1 (stereo not shown) [Ex 56] | – | – | 0.067 mg/kg | 2.3 nM

Row | Compound | ED50 [1, 4] | EC50 (human S1P1 [2]) | ED50 [1, 5] | EC50 (human S1P1 [3])
18 | Cc1c(OCc2ccc(C(F)(F)F)cc2C(F)(F)F)ccc2c1OCC(CN1CCC(C(=O)O)C1)=C2.Cl (stereo not shown) [Ex 137] | – | – | 0.11 mg/kg | 9.4 nM
19 | O=C(O)C1CN(CC2=Cc3ccc(OCc4cc(-c5ccccc5)c(Br)s4)cc3OC2)C1 [Ex 43] | – | – | 0.26 mg/kg | 6.2 nM
20 | O=C(O)C1(F)CCN(CC2=Cc3c(F)cc(OCc4cc(-c5ccccc5)c(C(F)(F)F)s4)cc3OC2)C1 (stereo not shown) [Ex 74] | – | – | 0.59 mg/kg | 5.6 nM
21 | C[C@H](Oc1ccc(COc2ccc3c(c2)OCC(CN2CCC=C(C(=O)O)C2)=C3)cc1Cl)C(F)(F)F.Cl [Ex 149] | 0.12 mg/kg | – | – | 8.7 nM
22 | O=C(O)C1CCN(CC2=Cc3c(F)cc(OCc4ccc(-c5ccccc5)c(C(F)(F)F)c4)cc3OC2)C1 (stereo not shown) [Ex 62] | – | – | 0.21 mg/kg | 2.5 nM
23 | C[C@H](Oc1ccc(COc2ccc3c(c2)OCC(CN2CCC[C@@H](C(=O)O)C2)=C3)cc1C(F)(F)F)C(F)(F)F.Cl [Ex 156, (3R)-1-[(7-{[3-(trifluoromethyl)-4-{[(2S)-1,1,1-trifluoropropan-2-yl]oxy}benzyl]oxy}-2H-chromen-3-yl)methyl]piperidine-3-carboxylic acid hydrochloride] | 0.086 mg/kg | 16 nM | – | –
24 | Cl.O=C(O)C1CCN(CC2=Cc3ccc(OCc4ccc(OCC(F)(F)F)c(C(F)(F)F)c4)cc3OC2)CC1 [Ex 171] | 0.14 mg/kg | 9 nM | – | –
25 | CC1(C(=O)O)CN(CC2=Cc3ccc(OCc4ccc(-n5cccc5)c(C(F)(F)F)c4)cc3OC2)C1 [Ex 116] | – | – | 0.1 mg/kg | 8.5 nM
26 | CC1(C(=O)O)CCN(CC2=Cc3c(F)cc(OCc4ccc(-n5cccc5)c(C(F)(F)F)c4)cc3OC2)C1 (stereo not shown) [Ex 89] | – | – | 0.16 mg/kg | 6.1 nM
27 | Cl.O=C(O)C1=CCCN(CC2=Cc3c(F)cc(OCc4ccc(OC(CF)CF)c(Cl)c4)cc3OC2)C1 [Ex 143] | – | – | 0.32 mg/kg | –
28 | C[C@H](Oc1ccc(COc2cc(F)c3c(c2)OCC(CN2CCC=C(C(=O)O)C2)=C3)cc1Cl)C(F)(F)F.Cl [Ex 144] | – | – | 0.16 mg/kg | –
29 | Cl.O=C(O)[C@H]1CCCN(CC2=Cc3c(F)cc(OCc4ccc(OCC(F)(F)F)c(C(F)(F)F)c4)cc3OC2)C1 [Ex 236] | 0.1 mg/kg | 32 nM | – | –
30 | O=C(O)C1CN(CC2=Cc3c(F)cc(OCc4ccc(C(F)(F)F)cc4C(F)(F)F)cc3OC2)C1 [Ex 34] | – | – | 0.01 mg/kg | 2 nM
31 | Cl.O=C(O)C1CCN(CC2=Cc3c(F)cc(OCc4ccc(C(F)(F)F)cc4C(F)(F)F)cc3OC2)C1 (stereo not shown) [Ex 45] | – | – | 0.1 mg/kg | 1.5 nM
32 | CCCc1ccc(COc2ccc3c(c2)OCC(CN2CCC(C(=O)O)C2)=C3)c(OC)c1 (stereo not shown) [Ex 31] | – | – | 0.065 mg/kg | 1.2 nM
33 | CC(C)Oc1ccc(COc2ccc3c(c2)OCC(CN2CCC=C(C(=O)O)C2)=C3)cc1C(F)(F)F.Cl [Ex 178] | 0.12 mg/kg | – | – | 55 nM
